{
  "source": "patent US7368576B2",
  "about": "“Dipeptidyl peptidase IV inhibitors and their uses as anti-cancer agents” (Probiodrug AG, priority 2001, dated 2008)",
  "key": {"[1]": {"conditions": "REINHOLD, D., et al., 1998; cited from earlier work"}, "[2]": {"tested_on": "MADB106 tumor cells", "test": "In vivo cancer cell adhesion assay (CFSE labeled cells in lungs)", "parameters": "species or system F344 rats", "conditions": "30 min after inoculation", "method": "(§1) Cell culture, injection of tumor cells, dissection of the animals and immunohistochemistry were conducted as previously described (von Hörsten et al., 2000). In brief, 1×10^6 MADB106 tumor cells derived from log phase of tumor growth were injected via the lateral tail vein and lungs removed at different time points thereafter. For in situ quantification of tumor cells at early time points after injection (30 min), cells were vital dye stained using the fluorescein derivate 5- (and -6)-carboxyfluorescein diacetate succinimidyl ester (CFSE) before injection.\nControl sections were included in which one or both primary antibodies were omitted.\nVital dye (Carboxyfluorescein; CFSE) labeling of MADB106 tumor cells allows the quantification of tumor cells and NK cells in thick sections of lung tissue by stereology in situ (von Hörsten et al, 2000). In the present study we produced thin sections (8 μm) of the same lungs (n=10) and performed additional microscopic counting by image analysis of DE1 positive cells. This was done to further simplify the previously validated stereological quantification technique. Therefore, in the present study, the assessment of DE1 positive tumor cells in lung tissue from different substrains 30 min after tumor inoculation was carried out using image analysis approach. […] Each right upper lobe of the lungs was sectioned at 6 randomly chosen non-adjacent levels. From each level, three sections were evaluated."}, "[3]": {"tested_on": "MADB106 tumor cells", "test": "Cancer colonization assay (lung surface tumor colonies)", "format": "in vivo", "conditions": "F344 rats, 2 weeks after MADB106 injection; for number of lung surface tumor colonies, comparison of inhibitors: chronic intragastric infusion, isoleucyl thiazolidine fumarate 4 mg/24 h, the others 0.1 mg/24 h, vs. saline SHAM", "method": "as §1\nas §1, with “In” for “Cell culture, injection of tumor cells, dissection of the animals and immunohistochemistry were conducted as previously described (von Hörsten et al., 2000). In”\n(§2) Osmotic minipumps (Alzet model 2ML4; flow rate, 2.5 μl/hr; Alza Corporation), administering a constant supply of the different compounds, aseptically prefilled with either saline or DPIV inhibitor were placed subcutaneously in the abdominal area. Minipums were attached to a cannula via polyethylene tubing. The cannula was implanted intragastrically with a heating-induced enlarged tip of the cannula in the lumen of the gaster."}, "[4]": {"tested_on": "MADB106 tumor cells", "test": "Body weight change in rats with lung metastasis", "format": "in vivo", "conditions": "F344 rats, chronic intragastric infusion via osmotic minipumps, 0.04, 0.4, 4 mg/24 h, 2 weeks after MADB106 injection, post-hoc significant at 0.4 mg and 4 mg", "method": "as §2\nData from in vivo body weight gain and number of lung surface tumor colonies were analyzed by one-way ANOVAs and Fisher's PLSD post hoc tests, if appropriate. An asterisk indicates significant post hoc effects vs. saline (SHAM) treated controls obtained by Fisher's PLSD. All data are presented as means±S.E.M."}, "[5]": {"tested_on": "MADB106 tumor cells", "test": "Cancer colonization assay (lung surface tumor colonies)", "format": "in vivo, F344 rats", "conditions": "F344USA rats, 2 mg i.v. + 2 mg i.p., 2 weeks after MADB106 injection, vs. saline; fumarate"}},
  "note": "“Also recorded” adds a separate entry of the source. Where a name gives a salt, the structure may show the parent alone.",
  "data": [
    {"smiles": "N[C@@H](CCC(=O)NCC(=O)O)C(=O)N1CCSC1", "note": "[Glu(Gly)-Thia]", "values": [
      {"measurement": "transport", "setting": "[1]", "result": "transported completely"}
    ]},
    {"smiles": "CC[C@H](C)[C@H](N)C(=O)N1CCSC1", "note": "[Isoleucyl thiazolidine fumarate]", "values": [
      {"measurement": "tumor cell adhesion, CFSE positive cells in lung tissue", "setting": "[2]; DPIV mutant F344GER and F344JAP rats, single injection 2 mg i.v. + 2 mg i.p., fumarate", "result": "significantly modified; also recorded: promoting effect"},
      {"measurement": "tumor cell adhesion, CFSE positive cells in lung tissue", "setting": "[2]; wild-type F344USA rats, single injection i.v. + i.p., vs. saline, fumarate", "result": "did not significantly affect tumor adhesion; also recorded: lack of effects"},
      {"measurement": "number of lung surface tumor colonies, different dosages", "setting": "[3]; chronic intragastric infusion 0.04, 0.4, 4 mg/24 h, post-hoc significant at 4 mg, fumarate", "result": "significant effect; also recorded: dose dependent reduction of lung colony numbers"},
      {"measurement": "number of lung surface tumor colonies, comparison of inhibitors", "setting": "[3]; fumarate", "result": "dose-dependently reduced; also recorded: significant reduction of lung colony numbers"},
      {"measurement": "body weight change (cancer-induced weight loss)", "setting": "[4]; fumarate", "result": "dose-dependently reduced; also recorded: dose dependent reduction of the loss of body weight"},
      {"measurement": "number of lung surface tumor colonies after single injection", "setting": "[5]", "result": "no significant effect; also recorded: no significant differences"}
    ]},
    {"smiles": "N[C@@H](CCCCNC(=O)OCc1ccc([N+](=O)[O-])cc1)C(=O)N1CCSC1", "note": "[Lys(Z-NO2)-Thia]", "values": [
      {"measurement": "transport", "setting": "[1]", "result": "transported completely"}
    ]},
    {"smiles": "CC[C@H](C)[C@H](N)C(=O)N1CCCC1C#N.O=C(O)C(F)(F)F", "note": "(stereo partly drawn) [isoleucyl cyanopyrrolidine TFA]", "values": [
      {"measurement": "tumor cell adhesion, CFSE positive cells in lung tissue", "setting": "[2]; wild-type F344USA rats, single injection i.v. + i.p., vs. saline, TFA", "result": "no significant effect; also recorded: significant differences vs. saline treated controls were not found"},
      {"measurement": "number of lung surface tumor colonies, comparison of inhibitors", "setting": "[3]; TFA", "result": "significant reduction of lung colony numbers"},
      {"measurement": "number of lung surface tumor colonies, comparison of inhibitors", "setting": "[3]; listed as isoleucyl cyano pyrrolidine TFA, TFA", "result": "dose-dependently reduced"},
      {"measurement": "body weight change (cancer-induced weight loss)", "setting": "[4]", "result": "dose-dependently reduced"}
    ]}
  ]
}
